# Measurements published in the supplement of paper PMC10307832.
# Tests used:
# Assay in all cases: relative viability (nuclei count vs DMSO), 5 days (fraction); higher = more cells survive
# [1] = compound: COC1=CC=C(C=C1)CN2C=CC3=C2C=C(C=C3)C(=O)NO + Nc1nc2[nH]cc(CCc3ccc(C(=O)N[C@@H](CCC(=O)O)C(=O)O)cc3)c2c(=O)[nH]1 [Pemetrexed] (partner 0.2 µM)
# Procedure, shortened: (§1)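 Each reported value is a median over duplicate plates. It expresses relative viability: treated-well nuclei count divided by vehicle-well nuclei count. Lung cancer cell lines in 1536-well plates were dosed by pin tool a day after seeding, alone with one drug or with a fixed anchor-drug dose plus five library-drug doses (not always all listed) in √10 steps, and nuclei were counted after 5 days.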
# [2] = compound: COC1=CC=C(C=C1)CN2C=CC3=C2C=C(C=C3)C(=O)NO + O=C(c1cc(Cc2n[nH]c(=O)c3ccccc23)ccc1F)N1CCN(C(=O)C2CC2)CC1 [Olaparib] (partner 8 µM)
# Procedure, shortened: as §1
# Veliparib + Pictilisib = compound: C[C@]1(c2nc3c(C(N)=O)cccc3[nH]2)CCCN1 [Veliparib] + CS(=O)(=O)N1CCN(Cc2cc3nc(-c4cccc5[nH]ncc45)nc(N4CCOCC4)c3s2)CC1 [Pictilisib] (partner 1 µM)
# Procedure, shortened: as §1
# Veliparib + Vorinostat = compound: C[C@]1(c2nc3c(C(N)=O)cccc3[nH]2)CCCN1 [Veliparib] + O=C(CCCCCCC(=O)Nc1ccccc1)NO [Vorinostat] (partner 1 µM)
# Procedure, shortened: as §1
Cell Line,relative viability ([1]; first compound 0.253 µM),relative viability ([1]; first compound 0.8 µM),relative viability ([1]; first compound 2.53 µM),relative viability ([1]; first compound 8 µM),relative viability ([2]; first compound 0.253 µM),relative viability ([2]; first compound 0.8 µM),relative viability ([2]; first compound 2.53 µM),relative viability ([2]; first compound 8 µM),relative viability (Veliparib + Pictilisib; first compound 0.02 µM),relative viability (Veliparib + Pictilisib; first compound 0.06325 µM),relative viability (Veliparib + Pictilisib; first compound 0.2 µM),relative viability (Veliparib + Pictilisib; first compound 0.6325 µM),relative viability (Veliparib + Pictilisib; first compound 2 µM),relative viability (Veliparib + Vorinostat; first compound 0.06325 µM),relative viability (Veliparib + Vorinostat; first compound 0.2 µM),relative viability (Veliparib + Vorinostat; first compound 0.6325 µM),relative viability (Veliparib + Vorinostat; first compound 2 µM),relative viability ([1]; first compound 0.08 µM),relative viability ([2]; first compound 0.08 µM),relative viability (Veliparib + Vorinostat; first compound 0.02 µM)
NCI-H1734,0.413,0.427,0.4,0.414,0.325,0.63,0.55,0.676,0.461,0.436,0.492,0.437,0.435,0.772,0.796,0.785,0.788,–,–,–
NCI-H1755,0.379,0.443,0.437,0.512,0.89,0.831,0.955,0.867,0.403,0.415,0.479,0.434,0.432,0.774,0.725,0.723,0.714,0.421,0.77,0.758
NCI-H1793,0.943,0.997,1.08,0.698,0.911,0.898,0.893,0.865,0.375,0.306,0.343,0.261,0.356,0.697,0.58,0.807,0.722,–,–,0.654
NCI-H1915,0.527,0.49,0.485,0.447,0.26,0.234,0.259,0.24,0.989,0.87,0.727,0.808,0.86,0.465,0.396,0.388,0.426,0.441,0.233,0.499
NCI-H1944,0.63,0.568,0.705,0.527,0.425,0.422,0.423,0.374,0.344,0.311,0.338,0.323,0.351,0.498,0.388,0.44,0.459,–,–,0.491
NCI-H1975,0.294,0.299,0.291,0.286,0.815,0.697,0.678,0.785,0.292,0.283,0.336,0.282,0.287,0.688,0.698,0.639,0.659,0.288,0.77,0.771
NCI-H1993,0.529,0.648,0.603,0.549,1.31,1.25,1.06,0.885,0.772,0.826,0.822,0.807,0.805,0.775,0.966,0.804,0.688,0.542,0.699,–
NCI-H2009,1.12,1,0.983,1.1,0.694,0.678,0.643,0.658,0.734,0.777,0.704,0.786,0.813,0.65,0.709,0.708,0.795,1.05,0.682,0.771
NCI-H2023,0.199,0.207,0.208,0.209,0.475,0.464,0.433,0.413,0.196,0.238,0.251,0.209,0.224,0.536,0.581,0.472,0.48,0.23,0.453,–
NCI-H2085,0.951,1.02,0.941,0.948,0.723,0.842,0.777,0.768,0.468,0.463,0.39,0.415,0.396,0.778,0.753,0.763,0.756,1.07,0.803,0.601
NCI-H2087,0.56,0.669,0.599,0.535,0.595,0.676,0.524,0.56,0.609,0.783,0.726,0.65,0.871,0.747,0.875,0.645,0.726,0.575,0.564,0.504
NCI-H2126,0.73,0.672,0.706,0.649,0.945,0.961,0.956,0.874,0.531,0.452,0.507,0.458,0.537,0.777,0.893,0.785,0.803,0.669,0.869,0.811
NCI-H2170,0.268,0.266,0.26,0.235,0.556,0.635,0.648,0.523,0.328,0.345,0.314,0.346,0.347,0.777,0.839,0.786,0.79,0.276,0.55,0.795
NCI-H2228,0.347,0.336,0.343,0.298,0.82,0.79,0.88,0.651,0.464,0.538,0.378,0.463,0.425,0.734,0.585,0.455,0.469,0.311,0.686,0.585
NCI-H2347,0.44,0.405,0.473,0.453,0.53,0.651,0.67,0.524,0.666,0.612,0.668,0.707,0.724,0.545,0.561,0.616,0.637,0.399,0.53,0.716
NCI-H2405,–,1.02,1.03,0.948,–,0.85,0.887,0.799,–,0.46,0.456,0.468,0.308,–,1.01,1.12,1.09,0.979,0.649,0.812
